In patent US4460560A, “Drug delivery by polymeric carriers” (University of Southern California, priority 1982, dated 1984):

Key:
hepatocytes [1] = test: Cell viability by 51Cr release; assay type: cell-based, rat; set-up: concentration or dose not given beside the values
Method: (§1) Cytotoxic effects of the microspheres of EXAMPLE 3 and free doxorubicin were investigated using short-term monolayer cultures established from the livers of normal rats and rats which had been fed 2-AAF or DEN. Cell viability was evaluated by trypan blue exclusion and confirmed by ^51 Cr release.
(§2) Male Fischer 344 rats weighing 150 to 200 g were used to obtain viable hepatocytes. The animals were fed a basal, high-casein diet. A 12-hr light cycle was maintained in the animal colony and water was given ad libitum. Carcinogen altered hepatocytes were produced by feeding the animals a diet containing 0.02% 2-AAF (w/w) or 80 ppm DEN in the drinking water for 8 to 12 weeks. Cells from such animals were used in the cytotoxicity and cell viability studies reported herein.
(§3) Liver cell suspensions were prepared by the collagenase perfusion technique. Cell suspensions were passed through sterile gauze filters to remove large tissue pieces. Viability was assessed by trypan blue exclusion and perfusates containing less than 65% viable cells were not used. Cells were plated at density of 1×10^6 viable cells per plastic culture flask of 25 cm^2 surface area in 4 ml of L-15 medium containing 3.5 mg/ml 4-(2-hydroxyethyl)-1-piperazineethanesulfonic acid and 2 mg/ml bovine serum albumin. The medium was supplemented with 10% fetal bovine serum, 100 μg/ml penicillin, and streptomycin. Following a 2 hour attachment period at 37° in a water-saturated 5% CO2 -95% air incubator, the cells were washed twice with medium and placed in 4ml of fresh medium supplemented with 200 μl PBS, free doxorubicin, uncoupled microspheres, or the polymer bound drug. At various times 0.8 ml of trypan blue was added to each flask and incubated for 10 minutes at 37°. The medium was removed and the number of viable cells was counted.
^51 Cr in the form of sodium chromate in sterile isotonic saline was added to the cell suspensions at a concentration of 100 μCi/0.5 ml/5×10^6 cells. The cells were then incubated at 37° for 1 hour with constant shaking. After labeling, the supernatent was removed by centrifugation at 350×g for 5 min and the cells were washed a minimum of 5 times in L-15 medium. Labeled cells were then aliquoted into culture flasks and allowed to attach as previously described. At various times 250 μl aliquots were removed from the flasks and counted in a Packard Gamma Counter. As a control for complete ^51 Cr release, 0% cell viability, cells were detached from the culture flask surface with 10% trypsin and subsequently lysed with 0.5% Nonidet P-40 followed by sonication. Total ^51 Cr release was obtained by subtraction of the residual radioactivity which remained associated with the cell debris.

[2] = tested on: rat liver cancer cell line RLC; test: Growth inhibition study; assay type: cell-based
Method: (§4) Cell lines used were the human leukemia clones CCRF-CEM/Vbl 500 and CCRF-CEM/Vbl 100 and rat liver cancer cells (RLC). All cultures were maintained in RPMI-1640 medium supplemented with fetal calf serum (2%), newborn calf serum (8%), penicillin-streptomycin (0.5 mg/ml), and fungizone (0.015 mg/ml) (Flow Laboratories Inc.). Suspension cultures were diluted to 4×10^4 cells/assay/1.8 ml medium and attached cell lines were plated at 2.5×10^5 cells/25 cm^2 growth area/3.6 ml medium. Appropriate quantities of free doxorubicin, microsphere coupled doxorubicin, plain polyglutaraldehyde microspheres, or PBS, were added and the assays were incubated for 3-6 doubling times at 37° in a 5% CO2 - 95% air incubator. Cells were then counted on a Model Zb Coulter counter and a ratio of total number of cells after incubation per number of cells originally introduced (Nt /No) was obtained.
The cytostatic activity of the drug polymer complex of EXAMPLE 3 was further investigated using the rat liver cancer cell line RLC. […] Furthermore, the Adr-PGLs retained growth inhibition properties at concentrations as low as 1×10^-9 M.

[3] = tested on: hepatocytes made resistant by DEN feeding; test: Viability of carcinogen altered drug-resistant hepatocytes; assay type: cell-based, rat; details: 24 hours; 10^-6 M
Text: as §2
Liver cell suspensions were prepared by the collagenase perfusion technique. Cell suspensions were passed through sterile gauze filters to remove large tissue pieces. Viability was assessed by trypan blue exclusion and perfusates containing less than 65% viable cells were not used. Cells were plated at density of 1×10^6 viable cells per plastic culture flask of 25 cm^2 surface area in 4 ml of L-15 medium containing 3.5 mg/ml 4-(2-hydroxyethyl)-1-piperazineethanesulfonic acid and 2 mg/ml bovine serum albumin. The medium was supplemented with 10% fetal bovine serum, 100 μg/ml penicillin, and streptomycin. […] The medium was removed and the number of viable cells was counted. […]

hepatocytes [4] = test: Cell viability by trypan blue exclusion (Table 2); assay type: cell-based, rat; set-up: concentration or dose not given beside the values
Method: as §1, §2, §3

CCRF-CEM = test: Cytostatic assay, IC50 determination; assay type: cell-based; details: Homo sapiens, after 4 to 6 doubling times, average of three determinations
Method: (§5) In order to test the cytostatic activity of the microspheres, IC50 determinations were made with both the free drug and the drug-polymer complexes. All cell lines were maintained in suspension cultures in RPMI-1640 medium supplemented with the 2% fetal calf serum, 8% newborn calf serum, 0.5 mg/ml penicillin-streptomycin, and 0.015 mg/ml fungizone. The cells were diluted to 40,000 cells/assay/1.8 ml medium and an amount of free doxorubicin, doxorubicin-microspheres or plain microspheres was added in 0.2 ml of phosphate buffered saline. After 4 to 6 doubling times had elapsed, the remaining cells were counted on a Coulter counter. A ratio of the number of cells after incubation per the number of cells originally introduced (Nt/No) was obtained. The drug concentration required for 50% inhibition of cell growth (IC50) was calculated according to the formula [formula]

CCRF-CEM/Vbl 100 = test: Cytostatic assay, IC50 determination; assay type: cell-based; details: Homo sapiens, after 4 to 6 doubling times, average of three determinations
Method: as §5

S-180 = test: Cytostatic assay, IC50 determination; assay type: cell-based; details: after 4 to 6 doubling times, average of three determinations
Method: as §5

CCRF-CEM/Vbl 500 = test: Cytostatic assay, IC50 determination; assay type: cell-based; details: Homo sapiens, after 4 to 6 doubling times, average of three determinations
Method: as §5

L1210 = test: Cytostatic assay, IC50 determination; assay type: cell-based; details: Mus musculus, after 4 to 6 doubling times, average of three determinations
Method: as §5

[5] = Time-survival response, trypan blue viability; assay type: cell-based; details: rat, hepatocytes, 10^-6 M
Text: as §2, §3
These studies are not continued for longer than 24 hours due to the rapid natural decline in viability observed with untreated cells after prolonged cell culture. The viability of untreated control cultures remained constant throughout each experiment. […] However, cell viability in the presence of free drug was not affected during the first 4 hours of treatment. Alternatively, at 24 hours only 10% of the cells treated with free drug remained viable while 64% of those treated with the bound drug were unaffected. Cell viability was not influenced by addition of uncoupled microspheres to the cultures.

CEM/Vbl 100 = test: Growth inhibition study; assay type: cell-based, human; details: 3-6 doubling times
Method: as §4
(§6) The cell lines CEM/Vbl 100 and CEM/Vbl 500 were used in cytostatic assays to determine differences in growth inhibition properties between free doxorubicin and polymer-bound drug. Both cell lines are resistant to the effects of vinca alkaloids and are cross-resistant to Adr. […] However, using 10^-7 M of the coupled drug, the growth inhibition for both cell lines is greater than 50%. At 10^-8 M, polymer bound doxorubicin inhibits growth 4-10 times more effectively than free drug. […] Each experiment was performed three times and drug concentrations were tested in duplicate.

CEM/Vbl 500 = test: Growth inhibition study; assay type: cell-based, human; details: Table 7, CEM/Vbl 100
Method: as §4, §6

[6] = tested on: hepatocytes made resistant by 2-AAF feeding; test: Viability of carcinogen altered drug-resistant hepatocytes; assay type: cell-based, rat; details: for viability at 1 µM: 10^-6 M
Text: as §2, §3
Hepatocytes in perfusates obtained from rats which had been fed the dietary carcinogen 2-AAF are highly resistant to the cytocidal effects of doxorubicin. Experiments were performed to determine the toxicity of the doxorubicin microspheres with regard to these resistant hepatocytes. […] Concentrations of free doxorubicin must be approximately 100-fold higher than the polymer-bound drug to decrease viability to 50%. The most significant differences in cytotoxicity occurred at a concentration of 10^-5 M where the free drug treated hepatocytes remained unaffected and polymer-bound doxorubicin decreased viability to 47%. Subsequent experiments were done with 10^-6 M, free or bound drug, to approach clinically relevant concentrations.
Cell kill kinetics of hepatocytes made resistant by 2-AAF feeding are depicted in TABLE 5. […] At 24 hours, only 67% of the cells remained viable. When hepatocytes made resistant by DEN feeding were used, the same results for free and polymer-bound Adr at 10^-6 M were obtained.

[7] = Homo sapiens, CEM/VBL100, 10^-5 M
[8] = Homo sapiens, CEM/VBL100, 10^-6 M
[9] = Homo sapiens, CEM/VBL100, 10^-7 M
[10] = Homo sapiens, CEM/VBL100, 10^-8 M
[11] = Homo sapiens, CEM/VBL100, 10^-9 M
[12] = Homo sapiens, CEM/VBL100, 10^-10 M

## COc1cccc2c1C(=O)c1c(O)c3c(c(O)c1C2=O)C[C@@](O)(C(=O)CO)C[C@@H]3O[C@H]1C[C@H](N)[C@H](O)[C@H](C)O1 [Free doxorubicin, doxorubicin]
Hepatocytes [1]; incubation time 3 hr
  Percent viability measured by Intracellular CR^51: 100%
Hepatocytes [1]; incubation time 5 hr
  Percent viability measured by Intracellular CR^51: 96%
Hepatocytes [1]; incubation time 8 hr
  Percent viability measured by Intracellular CR^51: 86%
Hepatocytes [1]; incubation time 12 hr
  Percent viability measured by Intracellular CR^51: 75%
Hepatocytes [1]; incubation time 18 hr
  Percent viability measured by Intracellular CR^51: 57%
[2]; 10^-3 M
  inhibition at 1000 µM: 100%
[2]; 10^-4 M
  inhibition at 100 µM: 80%
[2]; 10^-5 M
  inhibition at 10 µM: 36%
[2]; 10^-6 M
  inhibition at 1 µM: 22%
[2]; 10^-7 M
  inhibition at 0.1 µM: 0%
[2]; 10^-8 M
  inhibition at 0.01 µM: 0%
[2]; 10^-9 M
  inhibition at 0.001 µM: 0%
[2]; 10^-10 M
  inhibition at 0.0001 µM: 0%
[2]; RLC, read-out: 50% inhibitory concentration (IC50)
  IC50: 18 µM
[3]
  viability: no killing effect
Hepatocytes [4]; incubation time 3 hr
  Percent viability measured by Dye Exclusion: 100%
Hepatocytes [4]; incubation time 5 hr
  Percent viability measured by Dye Exclusion: 99%
Hepatocytes [4]; incubation time 8 hr
  Percent viability measured by Dye Exclusion: 81%
Hepatocytes [4]; incubation time 12 hr
  Percent viability measured by Dye Exclusion: 72%
Hepatocytes [4]; incubation time 18 hr
  Percent viability measured by Dye Exclusion: 59%
CCRF-CEM
  IC50: 0.011 µM
CCRF-CEM/Vbl 100
  IC50: 0.39 µM
S-180
  IC50: 0.023 µM
CCRF-CEM/Vbl 500
  IC50: 0.32 µM
L1210
  IC50: 0.028 µM
[5]; 2 hours
  viability at 2 h, 1 µM: 99%
[5]; 4 hours
  viability at 4 h, 1 µM: 98%
[5]; 6 hours
  viability at 6 h, 1 µM: 91%
[5]; 8 hours
  viability at 8 h, 1 µM: 81%
[5]; 12 hours
  viability at 12 h, 1 µM: 72%
[5]; 18 hours
  viability at 18 h, 1 µM: 59%
[5]; 24 hours
  viability at 24 h, 1 µM: 10%
CEM/Vbl 100; 10^-7 M, listed as Free Drug
  % Inhibition of growth: 22%
CEM/Vbl 100; [7]
  inhibition at 10 µM: 98%
CEM/Vbl 100; [8]
  inhibition at 1 µM: 86%
CEM/Vbl 100; [9]
  inhibition at 0.1 µM: < 22%
CEM/Vbl 100; [10]
  inhibition at 0.01 µM: 3%
CEM/Vbl 100; [11]
  inhibition at 0.001 µM: 5%
CEM/Vbl 100; [12]
  inhibition at 0.0001 µM: 0%
CEM/Vbl 500; 10^-7 M, listed as Free Drug
  % Inhibition of growth: 32%
CEM/Vbl 500; [7]
  inhibition at 10 µM: 81%
CEM/Vbl 500; [8]
  inhibition at 1 µM: 67%
CEM/Vbl 500; [9]
  inhibition at 0.1 µM: < 32%
CEM/Vbl 500; [10]
  inhibition at 0.01 µM: 14%
CEM/Vbl 500; [11]
  inhibition at 0.001 µM: 0%
CEM/Vbl 500; [12]
  inhibition at 0.0001 µM: 0%
CEM/Vbl 500; Homo sapiens, CEM/VBL100, 10^-11 M
  inhibition at 10 pM: 0%
[6]; 10^-5 M, 24-hr exposure, survival of attached cells compared to controls
  % Viability: unaffected
[6]; 24 hours, 10^-6 M (Table 5)
  % Viability: no detectable killing effect
[6]; Rattus norvegicus, Hepatocyte, 10^-4 M, 24-hr exposure, survival of attached cells compared to controls
  viability at 100 µM: 68%
[6]; Rattus norvegicus, Hepatocyte, 10^-5 M, 24-hr exposure, survival of attached cells compared to controls
  viability at 10 µM: 100%
[6]; Rattus norvegicus, Hepatocyte, 24-hr exposure, survival of attached cells compared to controls (Table 3)
  viability at 1 µM: 100%
[6]; Rattus norvegicus, Hepatocyte, 10^-7 M, 24-hr exposure, survival of attached cells compared to controls
  viability at 0.1 µM: 100%
[6]; Rattus norvegicus, Hepatocyte, 2 hours
  viability at 1 µM: 100%
[6]; Rattus norvegicus, Hepatocyte, 3 hours
  viability at 1 µM: 100%
[6]; Rattus norvegicus, Hepatocyte, 4 hours
  viability at 1 µM: 100%
[6]; Rattus norvegicus, Hepatocyte, 6 hours
  viability at 1 µM: 100%
[6]; Rattus norvegicus, Hepatocyte, 8 hours
  viability at 1 µM: 100%
[6]; Rattus norvegicus, Hepatocyte, 16 hours
  viability at 1 µM: 100%
[6]; Rattus norvegicus, Hepatocyte, 22 hours
  viability at 1 µM: 100%
